According to patent US20210015884A1 (priority 2018, published 2021):

Key:
[1] = tested on: IVA/PC virus; experiment: microbe, parasite or virus in culture; assay type: cell-based; settings: Influenza A virus, MDCK, read-out: IC50 of Zanamivir
[2] = tested on: m^6A methylation in viral RNA; assay type: cell-based, influenza A virus
[3] = tested on: IVA/PC virus; assay type: cell-based, influenza A virus

Compound: CC(=O)N[C@H]1[C@H]([C@H](O)[C@H](O)CO)OC(C(=O)O)=C[C@@H]1N=C(N)N [Zanamivir]
- IC50 [1]: 2 nM

Compound: 5′ GGACUGGACUGGACUGGACU 3′ (chemistry not given here) [Target]
- m^6A methylation in corresponding viral RNA [2]: concomitant decrease

Compound: Cc1ccc(Cl)c(Nc2ccccc2C(=O)O)c1Cl [MA, meclofenamic acid]
- effect on viral resistance to Zanamivir [3]: potentiates viral resistance to Zanamivir
